Assay results as given in ChEMBL document CHEMBL5143668, “Modular synthesis of 2,4-diaminoanilines as CNS drug-like non-covalent inhibitors of asparagine endopeptidase” (Bioorg Med Chem, 2022).

Columns and labels:
Legumain (Homo sapiens) = target: T1, Legumain (Homo sapiens) (UniProt Q99538); assay: Inhibition of recombinant human Asparagine endopeptidase at 10 uM preincubated for 5 mins followed by Z-Ala-Ala-Asn-AMC substrate addition measured after 2 hrs by microplate reader relative to control
T1 sequence (whole entry): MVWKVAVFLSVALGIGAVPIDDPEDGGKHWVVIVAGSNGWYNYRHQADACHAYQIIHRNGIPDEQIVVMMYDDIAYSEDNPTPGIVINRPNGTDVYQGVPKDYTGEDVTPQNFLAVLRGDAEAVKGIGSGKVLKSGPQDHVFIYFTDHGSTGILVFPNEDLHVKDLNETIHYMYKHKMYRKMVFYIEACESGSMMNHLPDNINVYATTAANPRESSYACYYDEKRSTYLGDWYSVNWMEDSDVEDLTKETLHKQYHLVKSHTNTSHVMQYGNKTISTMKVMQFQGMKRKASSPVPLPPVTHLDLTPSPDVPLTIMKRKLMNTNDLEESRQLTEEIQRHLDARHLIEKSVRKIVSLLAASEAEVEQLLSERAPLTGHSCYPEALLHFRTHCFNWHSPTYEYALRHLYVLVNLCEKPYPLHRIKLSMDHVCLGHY

Legumain = target: T2, Legumain (Homo sapiens, UniProt Q99538); assay: Inhibition of recombinant human Asparagine endopeptidase preincubated for 5 mins followed by Z-Ala-Ala-Asn-AMC substrate addition measured after 2 hrs by microplate reader
T2 sequence (Q99538 whole entry): T1 sequence (whole entry)

[1] = Dissociation constant, pKa of compound; format: physicochemical
L929 = assay: Cytotoxicity of mouse L929 cells assessed as reduction in cell viability at 5 to 500 nM measured after 24 hrs by MTT assay; format: toxicity, cell-based; conditions: l929, 24 h, 0.5 µM, dose 5-500 nM

SMILES	inhibition (Legumain (Homo sapiens))	IC50 (Legumain)	pKa [1]	Activity (L929)
Nc1ccc(N2CCOCC2)cc1N1CCOCC1	100%	0.844 µM	8.54	Non-Toxic
Nc1ccc(N2CCOCC2)cc1N1CCC2(CC1)OCCO2	100%	0.547 µM	8.62	–
CCOC(=O)C1CCN(c2cc(N3CCOCC3)ccc2N)CC1	98%	0.089 µM	8.8	Non-Toxic
Nc1ccc(N2CCOCC2)cc1N1CCC[C@H]1CO	48%	> 5 µM	6.96	–
CCOC(=O)C1CCN(c2ccc(N)c(N3CCC(C(=O)OCC)CC3)c2)CC1	53%	4.83 µM	10.6	Non-Toxic

More lines, main results first:

inhibition (Legumain (Homo sapiens))	IC50 (Legumain)	pKa [1]	SMILES	Activity (L929)
81%	0.757 µM	10.1	Nc1ccc(N2CCSCC2)cc1N1CCSCC1	–
89%	0.498 µM	8.54	Nc1ccc(N2CCOCC2)cc1N1CCSCC1	–
42%	> 5 µM	6.96	Nc1ccc(N2CCOCC2)cc1N1CCCC1	–
43%	> 5 µM	5.61	Nc1ccc(N2CCSCC2)cc1Cl	–
47%	> 5 µM	4.05	Nc1ccc(N2CCOCC2)cc1Cl	–
